This note sets out measurements from PubChem BioAssay AID330 (DTP/NCI, 2004).

The structures appear in SMILES notation. Where “and” joins values, the source holds several entries; their conditions need not be identical. Identical values can stand only once. Toxic doses and inconclusive results are not listed. Peptide text beside a SMILES is read from it.

The test relates to P388 leukemia ip, CD2F1 mice, survival T/C. Nature of the test: NCI In Vivo Anticancer Drug Screen. Data for tumor model P388 Leukemia (intraperitoneal) in CD2F1 (CDF1) mice. As to conditions: endpoint: median survival time, higher = longer survival. An outline of the steps:
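Mice carrying the transplanted tumor received test compound or vehicle. Survival was recorded in each group, and the value is the treated-group measurement divided by that of the vehicle-treated control group.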

The mark [1] stands for this setting: dose: 60.0 mg/kg/injection, schedule: Q01DX005 (ip), vehicle: Klucel (hydroxypropylcellulose) (HPC).
Setting [2] is: dose: 120.0 mg/kg/injection, schedule: Q01DX005 (ip), vehicle: Klucel (hydroxypropylcellulose) (HPC).
[3] abbreviates: dose: 50.0 mg/kg/injection, schedule: Q01DX009 (ip), vehicle: saline.
Where [4] appears, read: dose: 100.0 mg/kg/injection, schedule: Q01DX009 (ip), vehicle: saline.
The mark [5] stands for this setting: dose: 60.0 mg/kg/injection, schedule: Q01DX005 (ip), vehicle: saline with Tween-80.
Setting [6] is: dose: 12.5 mg/kg/injection, schedule: Q01DX009 (ip), vehicle: saline with Tween-80.

Regarding `N#C[S-].N#C[S-].N#C[S-].N#C[S-].[Cr+6].[NH2-].[NH2-]`, the T/C was 103 % of control (dose: 25.0 mg/kg/injection, schedule: Q04DX003 (ip), vehicle: saline) and 95 % of control (dose: 50.0 mg/kg/injection, schedule: Q04DX003 (ip), vehicle: saline).
With `Nc1cc2ccccc2cc1NS(=O)(=O)N1CCCCC1`, the T/C (dose: 50.0 mg/kg/injection, schedule: Q01DX009 (ip), vehicle: acetone) is 94 % of control; the T/C (dose: 100.0 mg/kg/injection, schedule: Q01DX009 (ip), vehicle: acetone) was 101 % of control; the T/C (dose: 200.0 mg/kg/injection, schedule: Q01DX009 (ip), vehicle: acetone) was 98 % of control.
With `O=c1[nH]cnc2c1cnn2CN1CCOCC1`, the T/C is 106 % of control (dose: 25.0 mg/kg/injection, schedule: Q01DX005 (ip), vehicle: Klucel (hydroxypropylcellulose) (HPC)); 117 % of control and 90 % of control (dose: 50.0 mg/kg/injection, schedule: Q01DX005 (ip), vehicle: Klucel (hydroxypropylcellulose) (HPC)); 120 % of control (dose: 100.0 mg/kg/injection, schedule: Q01DX005 (ip), vehicle: Klucel (hydroxypropylcellulose) (HPC)).
Consider `CCC(=C(c1ccc(OCCN(C)C)cc1)c1cccc(O)c1)c1ccccc1` (mixture of isomers), for which the T/C under setting [1] is 104 % of control and the T/C under setting [2] is 107 % of control.
As to `NCCN(Cc1ccccc1)C1CC1`, the T/C by setting is: under setting [3], 98 % of control; under setting [4], 91 % of control.
As for `COc1ccccc1CNCCCCCCNCCSSCCNCCCCCCNCc1ccccc1OC`, the T/C reads like this: (dose: 12.5 mg/kg/injection, schedule: Q04DX002 (ip), vehicle: suspension in saline) 102 % of control; (dose: 25.0 mg/kg/injection, schedule: Q04DX002 (ip), vehicle: suspension in saline) 97 % of control.
As for `CC(NC(=O)C(C)NC(=O)C(N)CCC(=O)O)C(=O)O` (stereo not drawn) (H-Glu-Ala-Ala-OH; configuration not given here), the T/C (dose: 50.0 mg/kg/injection, schedule: Q01DX005 (ip), vehicle: saline) was 104 % of control; the T/C (dose: 100.0 mg/kg/injection, schedule: Q01DX005 (ip), vehicle: saline) is 104 % of control; the T/C (dose: 200.0 mg/kg/injection, schedule: Q01DX005 (ip), vehicle: saline) was 103 % of control.
For the compound `Cc1ccc(S(=O)(=O)N/N=C/c2c(-c3ccc(-c4ccccc4)cc3)nc3sccn23)cc1`, the T/C was 94 % of control (dose: 100.0 mg/kg/injection, schedule: Q01DX001 (ip), vehicle: Klucel (hydroxypropylcellulose) (HPC)); 86 % of control (dose: 200.0 mg/kg/injection, schedule: Q01DX001 (ip), vehicle: Klucel (hydroxypropylcellulose) (HPC)); 88 % of control (dose: 400.0 mg/kg/injection, schedule: Q01DX001 (ip), vehicle: Klucel (hydroxypropylcellulose) (HPC)).
Take `Nc1ncc(CCCOc2ccccc2)c(=O)[nH]1`: the T/C runs as follows: (dose: 100.0 mg/kg/injection, schedule: Q01DX001 (ip), vehicle: saline with Tween-80) 90 % of control; (dose: 200.0 mg/kg/injection, schedule: Q01DX001 (ip), vehicle: saline with Tween-80) 90 % of control; (dose: 400.0 mg/kg/injection, schedule: Q01DX001 (ip), vehicle: saline with Tween-80) 90 % of control.
Turning to `CC(=O)OC1CN(C)CC=C1c1ccccc1` (stereo unspecified), the T/C reads like this: (dose: 15.0 mg/kg/injection, schedule: Q01DX005 (ip), vehicle: saline with Tween-80) 91 % of control; (dose: 30.0 mg/kg/injection, schedule: Q01DX005 (ip), vehicle: saline with Tween-80) 97 % of control; under setting [5], 100 % of control and 97 % of control.
As to `O=C(O)c1ccc(O)c(O)c1.[NH2-].[NH2-].[NH2-].[NH2-].[Ru+4]`, the T/C (dose: 87.5 mg/kg/injection, schedule: Q04DX002 (ip), vehicle: saline) is 104 % of control; the T/C (dose: 175.0 mg/kg/injection, schedule: Q04DX002 (ip), vehicle: saline) is 108 % of control; the T/C (dose: 350.0 mg/kg/injection, schedule: Q04DX002 (ip), vehicle: saline) is 105 % of control.
For the compound `CN(C)C1C(O)C2Oc3c(cc(O)c4c3C(=O)c3cc5c(c(O)c3C4=O)C(OCCN)CC(C)(O)C5)C(C)(O2)C1O` (stereo unspecified), the T/C is, setting by setting: (dose: 5.0 mg/kg/injection, schedule: Q01DX009 (ip), vehicle: other) 99 % of control; (dose: 10.0 mg/kg/injection, schedule: Q01DX009 (ip), vehicle: other) 101 % of control; (dose: 20.0 mg/kg/injection, schedule: Q01DX009 (ip), vehicle: other) 106 % of control; (dose: 40.0 mg/kg/injection, schedule: Q01DX009 (ip), vehicle: other) 117 % of control.
Turning to `CCOc1ccc(N2C(=O)CC(Sc3ccccc3N)C2=O)cc1` (stereo unspecified), the T/C was 110 % of control (dose: 100.0 mg/kg/injection, schedule: Q01DX009 (ip), vehicle: saline with Tween-80); 115 % of control (dose: 200.0 mg/kg/injection, schedule: Q01DX009 (ip), vehicle: saline with Tween-80); 120 % of control (dose: 400.0 mg/kg/injection, schedule: Q01DX009 (ip), vehicle: saline with Tween-80).
Turning to `Cc1cc(/C=C/c2ccccc2)nc(/C=C/c2ccccc2)c1`, the T/C by setting is: under setting [5], 104 % of control; (dose: 120.0 mg/kg/injection, schedule: Q01DX005 (ip), vehicle: saline with Tween-80) 97 % of control; (dose: 240.0 mg/kg/injection, schedule: Q01DX005 (ip), vehicle: saline with Tween-80) 100 % of control.
With `CC(C)N1CCOC(c2cccc(C(F)(F)F)c2)C1` (stereo unspecified), the T/C is 101 % of control under setting [3] and 99 % of control under setting [4].
Take `Cc1c2cc[n+](CCCCCCCC[n+]3ccc4c(C)c5[nH]c6ccccc6c5cc4c3C)c(C)c2cc2c1[nH]c1ccccc12`: the T/C is 106 % of control (dose: 0.78 mg/kg/injection, schedule: Q04DX003 (ip), vehicle: distilled water + Tween-80); 106 % of control (dose: 1.56 mg/kg/injection, schedule: Q04DX003 (ip), vehicle: distilled water + Tween-80); 109 % of control (dose: 3.13 mg/kg/injection, schedule: Q04DX003 (ip), vehicle: distilled water + Tween-80); 103 % of control and 113 % of control (dose: 6.25 mg/kg/injection, schedule: Q04DX003 (ip), vehicle: distilled water + Tween-80); 105 % of control and 116 % of control and 122 % of control (dose: 12.5 mg/kg/injection, schedule: Q04DX003 (ip), vehicle: distilled water + Tween-80); 116 % of control and 121 % of control and 123 % of control (dose: 25.0 mg/kg/injection, schedule: Q04DX003 (ip), vehicle: distilled water + Tween-80). For the setting “dose: 100.0 mg/kg/injection, schedule: Q04DX003 (ip), vehicle: distilled water + Tween-80”, the T/C is 121 % of control.
For `O=c1oc2nc(-c3ccccc3)[nH]c(=O)c2c(O)c1-c1ccccc1`, the T/C under setting [1] is 96 % of control and the T/C under setting [2] was 96 % of control.
`CSC(=S)N/N=C(/C)CC(C)C`: the T/C runs as follows: under setting [6], 105 % of control; (dose: 25.0 mg/kg/injection, schedule: Q01DX009 (ip), vehicle: saline with Tween-80) 120 % of control; (dose: 50.0 mg/kg/injection, schedule: Q01DX009 (ip), vehicle: saline with Tween-80) 100 % of control.
For `CN(C)CCCN=c1c2ccccc2n(O)c2cccc([N+](=O)[O-])c12`, the T/C is 123 % of control (dose: 1.56 mg/kg/injection, schedule: Q01DX009 (ip), vehicle: saline with Tween-80); 117 % of control (dose: 3.12 mg/kg/injection, schedule: Q01DX009 (ip), vehicle: saline); 104 % of control under setting [6].
